System: whitetail deer
Assay: Free-choice consumption of repellent-adulterated salt by salt-deprived deer
Format: in vivo
Details: mean per 48-hour provision, dry matter basis
Protocol: The products evaluated were three classes of commercially available, non-lethal repellents. Products that repel deer based on taste modification, chemical irritation and fear were evaluated. One gram of water was used to blend the dry repellents with loose salt in a V-mixer (tumble mixer). Liquid repellents were added directly to salt and blended using the V-mixer. After blending, the adulterated salt was weighed into labeled, channel-lock bags, sealed, and stored for eventual delivery to the test farm.
Testing was carried out at the farm of a whitetail deer farmer located in Indiana. The testing was carried out by both the farmer and a veterinarian. Approximately twelve deer that ranged in age from 1.5 to 3 years were used in the study. The deer appeared to be healthy at the beginning of the study and maintained satisfactory health during the completion of the study. Signs consistent with clinical disease were not observed, and medical treatments were not administered to any of the deer. The deer were divided into two groups and housed in two separate grass paddocks. Each paddock housed approximately six deer. The size of the paddocks was about 250 ft.×100 ft.
The deer used in the study were fed a diet that was devoid of supplemental salt. Feed was provided in plastic feeders on the ground and inside a wooden, three-sided feeding station that was constructed by the farm owner. Feeding stations were present in both paddocks. Salt was provided free-choice in shallow, black rubber pans, and the pans were housed in a raised, wooden trough that was mounted on the wall of the feeding station. Water was provided to the deer in round plastic containers located within the paddocks. Water and feed were provided to the deer by the farm owner.
Prior to initiation of the study, the salt-free diet and free-choice, unadulterated salt were provided to the deer for a period of one-week to permit acclimation to the feeding regimen. After initiation of the study, access to salt was restricted in an attempt to impose a state of salt deprivation in the deer. Free-choice, unadulterated salt was removed, and the deer were fed the diet deficient in salt for a period of 48 hours to induce salt deprivation. After 48 hours, free-choice salt containing the different repellents was provided. After 48 hours, salt containing the repellents was removed, and another 48-hour period of salt deprivation was imposed followed by provision of adulterated salt for another 48-hour period. The regimen of 48 hours of adulterated salt provision, 48 hours of salt deprivation was used throughout the study and constituted an experimental replication. A total of eight replications were completed for the chemical irritation and fear class of repellents. A total of seven replications were completed for the taste class of repellents.
The pans containing adulterated salt were randomly arranged in the raised, wooden trough on each replication to prevent the deer from becoming habituated to the placement of repellents in a particular position in the trough. A one-week period of access to unadulterated salt was permitted after the final replication of the respective classes of repellents was completed. The experimental period for each class of repellents varied between 28 and 32 days.
Absolute dry matter of unadulterated salt was determined by drying 1 gram samples in a 212° F. (100° C.) oven for a period of 24 hours. Dry matter of unadulterated salt was determined to be 99.8%. After collection of adulterated and unadulterated salt from the feeding stations, the salt was transferred to aluminum pans and dried in a 131° F. (55° C.) oven for 48 hours to determine physiologic dry matter.
Salt consumption was determined by calculating the difference between salt provided and salt collected after 48 hours. The data was converted to, and expressed on, a dry matter basis.
Consumption data for the two paddocks was merged for analysis. […]

[1] = taste repellents in free salt at Table 1 inclusion rates, seven replications

Row | Compound | Consumed [1] [g] | other results
1 | CC[N+](CC)(CC(=O)Nc1c(C)cccc1C)Cc1ccccc1 [Bitrex, Denatonium benzoate] | 8.29 | 
2 | COc1cc(CNC(=O)CCCC/C=C/C(C)C)ccc1O [Capsaicin] |  | Consumed (chemical irritation repellent, 0.007% by weight in salt, eight replications): 8.81 g; Consumed (chemical irritation repellent, 0.07% by weight in salt, eight replications): 9.38 g
3 | [Cl-].[Li+] [Lithium Chloride, Lithium chloride] |  | Consumed (chemical irritation repellent, 0.38% by weight in salt, eight replications): 7.06 g
4 | Acid casein | 8.21 | 
5 | Rennet casein | 10.43 | 
6 | Sodium caseinate | 7.62 | 

Source: patent publication US20120121680A1, “ANIMAL REPELLING DEICER” (NORTH AMERICAN SALT COMPANY, priority 2010, published 2012)
